In US8791118B2, “Pyridopyrazines as highly selective ras-Raf-Mek-Erk signal transduction pathway inhibitors” (Aeterna Zentaris GmbH, priority 2011, dated 2014):

For CCCNc1cnc2ccc(NC(=O)NCCCCc3ccccc3)nc2n1 [Compound 119, 1-(4-Phenyl-butyl)-3-(3-propylamino-pyrido[2,3-b]pyrazin-6-yl)-urea], which melting point is on record?
The melting point was 118 to 120 °C.

Which melting point does the source give for C[C@H](CCCc1ccccc1)NC(=O)Nc1ccc2ncc(N3CCN(C)CC3)nc2n1 [Compound 153, 1-((R)-1-Methyl-4-phenyl-butyl)-3-[3-(4-methyl-piperazin-1-yl)-pyrido[2,3-b]pyrazin-6-yl]-urea] here?
Its melting point is 172 to 175 °C.

Which melting point does the source give for C[C@H](CCCc1ccccc1)NC(=O)Nc1ccc2ncc(N3CCCCC3)nc2n1 [Compound 154, 1-((R)-1-Methyl-4-phenyl-butyl)-3-(3-piperidin-1-yl-pyrido[2,3-b]pyrazin-6-yl)-urea] here?
The melting point was 171 to 174 °C.

Which melting point does the source give for COc1ccccc1-c1cnc2ccc(NC(=O)NCCCCc3ccccc3)nc2n1 [Compound 124, 1-[3-(2-Methoxy-phenyl)-pyrido[2,3-b]pyrazin-6-yl]-3-(4-phenyl-butyl)-urea] here?
The melting point was 173 to 177 °C.

For O=C(NCCCCc1ccccc1)Nc1ccc2ncc(-c3ccncc3)nc2n1 [Compound 184, 1-(4-Phenyl-butyl)-3-(3-pyridin-4-yl-pyrido[2,3-b]pyrazin-6-yl)-urea], which melting point is on record?
Its melting point is 219 to 222 °C.

Which melting point does the source give for O=C(NCCCCc1ccccc1)Nc1ccc2ncc(-c3ccc(O)c(Br)c3)nc2n1 [Compound 109, 1-[3-(3-Bromo-4-hydroxy-phenyl)-pyrido[2,3-b]pyrazin-6-yl]-3-(4-phenyl-butyl)-urea] here?
Its melting point is 238 to 241 °C.

For CSc1ccc(-c2cnc3ccc(NC(=O)NCCCCc4ccccc4)nc3n2)cc1 [Compound 137, 1-[3-(4-Methylsulfanyl-phenyl)-pyrido[2,3-b]pyrazin-6-yl]-3-(4-phenyl-butyl)-urea], which melting point is on record?
Its melting point is 227 to 230 °C.

For O=C(NCCCCc1ccccc1)Nc1ccc2ncc(-c3ccccc3O)nc2n1 [Compound 133, 1-[3-(2-Hydroxy-phenyl)-pyrido[2,3-b]pyrazin-6-yl]-3-(4-phenyl-butyl)-urea], which melting point is on record?
Its melting point is 247 to 248 °C.

For CCOC(=O)Oc1ccc(-c2cnc3ccc(NC(=O)NCCCCc4ccccc4)nc3n2)cc1 [Compound 132, Carbonic acid ethyl ester 4-{6-[3-(4-phenyl-butyl)-ureido]-pyrido[2,3-b]pyrazin-3-yl}-phenyl ester], which melting point is on record?
The melting point was 212 °C.

Which melting point does the source give for COc1cc(Nc2cnc3ccc(NC(=O)NCCCCc4ccccc4)nc3n2)cc(O)c1OC [Compound 141, 1-[3-(3-Hydroxy-4,5-dimethoxy-phenylamino)-pyrido[2,3-b]pyrazin-6-yl]-3-(4-phenyl-butyl)-urea] here?
Its melting point is 136 to 139 °C.

Which melting point does the source give for COc1ccc(-c2cnc3ccc(NC(=O)N[C@H](C)CCCc4ccccc4)nc3n2)cc1OC [Compound 98, 1-[3-(3,4-Dimethoxy-phenyl)-pyrido[2,3-b]pyrazin-6-yl]-3-((R)-1-methyl-4-phenyl-butyl)-urea] here?
Its melting point is 195 to 197 °C.

Which melting point does the source give for Cl.O=C(NCCCCc1ccccc1)Nc1ccc2ncc(N3CCNCC3)nc2n1 here?
The melting point was 209 to 211 °C.

With CCCn1cc(-c2cnc3ccc(NC(=O)NCCCC(=O)c4ccccc4)nc3n2)cn1 [Compound 131, 1-(4-Oxo-4-phenyl-butyl)-3-[3-(1-propyl-1H-pyrazol-4-yl)-pyrido[2,3-b]pyrazin-6-yl]-urea] as the compound, how does the melting point read?
Its melting point is 210 to 211 °C.

For Cn1cc(-c2cnc3ccc(NC(=O)NCC4CCc5ccccc5C4)nc3n2)cn1 (stereo not drawn) [Compound 111, 1-[3-(1-Methyl-1H-pyrazol-4-yl)-pyrido[2,3-b]pyrazin-6-yl]-3-(1,2,3,4-tetrahydro-naphthalen-2-ylmethyl)-urea], which melting point is on record?
The melting point was 230 to 233 °C.

Which melting point does the source give for Cc1ccc(CCCCNC(=O)Nc2ccc3ncc(-c4cnn(C)c4)nc3n2)cc1 [Compound 97, 1-[3-(1-Methyl-1H-pyrazol-4-yl)-pyrido[2,3-b]pyrazin-6-yl]-3-(4-p-tolyl-butyl)-urea] here?
The melting point was 202 to 204 °C.

With C[C@H](CCCc1ccccc1)NC(=O)Nc1ccc2ncc(-c3ccc(O)cc3)nc2n1 [Compound 147, 1-[3-(4-Hydroxy-phenyl)-pyrido[2,3-b]pyrazin-6-yl]-3-((R)-1-methyl-4-phenyl-butyl)-urea] as the compound, how does the melting point read?
The melting point was 226 to 229 °C.

With CN1CCN(c2cnc3ccc(NC(=O)NCCCCc4ccccc4)nc3n2)CC1 [Compound 93, 1-[3-(4-Methyl-piperazin-1-yl)-pyrido[2,3-b]pyrazin-6-yl]-3-(4-phenyl-butyl)-urea] as the compound, how does the melting point read?
The melting point was 181 to 183 °C.

With O=C(NCCCCc1ccccc1)Nc1ccc2ncc(-c3ccc(CO)cc3)nc2n1 [Compound 182, 1-[3-(4-Hydroxymethyl-phenyl)-pyrido[2,3-b]pyrazin-6-yl]-3-(4-phenyl-butyl)-urea] as the compound, how does the melting point read?
Its melting point is 213 to 215 °C.

With C[C@H](CCCc1ccccc1)NC(=O)Nc1ccc2ncc(-c3cccnc3)nc2n1 [Compound 150, 1-((R)-1-Methyl-4-phenyl-butyl)-3-(3-pyridin-3-yl-pyrido[2,3-b]pyrazin-6-yl)-urea] as the compound, how does the melting point read?
The melting point was 218 to 220 °C.

With CC(C)(C)C(=O)Oc1ccc(-c2cnc3ccc(NC(=O)NCCCCc4ccccc4)nc3n2)cc1 [Compound 135, 2,2-Dimethyl-propionic acid 4-{6-[3-(4-phenyl-butyl)-ureido]-pyrido[2,3-b]pyrazin-3-yl}-phenyl ester] as the compound, how does the melting point read?
The melting point was 225 °C.

With COc1ccc(CCCCNC(=O)Nc2ccc3ncc(-c4cnn(C)c4)nc3n2)cc1 [Compound 115, 1-[4-(4-Methoxy-phenyl)-butyl]-3-[3-(1-methyl-1H-pyrazol-4-yl)-pyrido[2,3-b]pyrazin-6-yl]-urea] as the compound, how does the melting point read?
The melting point was 195 to 196 °C.

Which melting point does the source give for COc1ccc(-c2cnc3ccc(NC(=O)NCCCCc4ccccc4)nc3n2)cc1 [Compound 118, 1-[3-(4-Methoxy-phenyl)-pyrido[2,3-b]pyrazin-6-yl]-3-(4-phenyl-butyl)-urea] here?
Its melting point is 200 to 203 °C.

With O=C(NCCCCc1ccccc1)Nc1ccc2ncc(-c3cccc(O)c3)nc2n1 [Compound 104, 1-[3-(3-Hydroxy-phenyl)-pyrido[2,3-b]pyrazin-6-yl]-3-(4-phenyl-butyl)-urea] as the compound, how does the melting point read?
Its melting point is 226 to 228 °C.

With C[C@H](CCCc1ccccc1)NC(=O)Nc1ccc2ncc(-c3ccc(O)c(F)c3)nc2n1 [Compound 185, 1-[3-(3-Fluoro-4-hydroxy-phenyl)-pyrido[2,3-b]pyrazin-6-yl]-3-((R)-1-methyl-4-phenyl-butyl)-urea] as the compound, how does the melting point read?
The melting point was 220 to 222 °C.

With COc1cc(Nc2cnc3ccc(NC(=O)NCCCCc4ccccc4)nc3n2)cc(OC)c1OC [Compound 139, 1-(4-Phenyl-butyl)-3-[3-(3,4,5-trimethoxy-phenylamino)-pyrido[2,3-b]pyrazin-6-yl]-urea] as the compound, how does the melting point read?
Its melting point is 223 to 225 °C.

For O=C(NCCCCc1ccccc1)Nc1ccc2ncc(-c3ccc(O)c(Cl)c3)nc2n1 [Compound 186, 1-[3-(3-Chloro-4-hydroxy-phenyl)-pyrido[2,3-b]pyrazin-6-yl]-3-(4-phenyl-butyl)-urea], which melting point is on record?
Its melting point is 241 to 243 °C.

With COc1ccc(-c2cnc3ccc(NC(=O)NCCCCc4ccccc4)nc3n2)cc1O [Compound 151, 1-[3-(3-Hydroxy-4-methoxy-phenyl)-pyrido[2,3-b]pyrazin-6-yl]-3-(4-phenyl-butyl)-urea] as the compound, how does the melting point read?
The melting point was 230 to 232 °C.

With N#Cc1cccc(-c2cnc3ccc(NC(=O)NCCCCc4ccccc4)nc3n2)c1 [Compound 138, 1-[3-(3-Cyano-phenyl)-pyrido[2,3-b]pyrazin-6-yl]-3-(4-phenyl-butyl)-urea] as the compound, how does the melting point read?
Its melting point is 237 to 240 °C.

For COc1ccc(-c2cnc3ccc(NC(=O)NCCCCc4ccccc4)nc3n2)c(OC)c1OC [Compound 92, 1-(4-Phenyl-butyl)-3-[3-(2,3,4-trimethoxy-phenyl)-pyrido[2,3-b]pyrazin-6-yl]-urea], which melting point is on record?
Its melting point is 135 to 138 °C.

Which melting point does the source give for O=C(NCCCCc1ccccc1)Nc1ccc2ncc(-c3ccn[nH]3)nc2n1 [Compound 105, 1-(4-Phenyl-butyl)-3-[3-(2H-pyrazol-3-yl)-pyrido[2,3-b]pyrazin-6-yl]-urea] here?
Its melting point is 280 °C (dec.).

Which melting point does the source give for Cc1n[nH]c(C)c1-c1cnc2ccc(NC(=O)NCCCCc3ccccc3)nc2n1 [Compound 91, 1-[3-(3,5-Dimethyl-1H-pyrazol-4-yl)-pyrido[2,3-b]pyrazin-6-yl]-3-(4-phenyl-butyl)-urea] here?
Its melting point is 299 to 300 °C.

Which melting point does the source give for CC(=O)Oc1ccc(-c2cnc3ccc(NC(=O)NCCCCc4ccccc4)nc3n2)cc1 [Compound 107, Acetic acid 4-{6-[3-(4-phenyl-butyl)-ureido]-pyrido[2,3-b]pyrazin-3-yl}-phenyl ester] here?
The melting point was 220 °C.

Which melting point does the source give for O=C(NCCCCc1ccccc1)Nc1ccc2ncc(-c3cc(Cl)c(O)c(Cl)c3)nc2n1 [Compound 103, 1-[3-(3,5-Dichloro-4-hydroxy-phenyl)-pyrido[2,3-b]pyrazin-6-yl]-3-(4-phenyl-butyl)-urea] here?
Its melting point is 271 to 273 °C.

With Cn1cc(-c2cnc3ccc(NC(=O)NCCCCc4ccc(F)cc4)nc3n2)cn1 [Compound 99, 1-[4-(4-Fluoro-phenyl)-butyl]-3-[3-(1-methyl-1H-pyrazol-4-yl)-pyrido[2,3-b]pyrazin-6-yl]-urea] as the compound, how does the melting point read?
The melting point was 197 to 200 °C.

Which melting point does the source give for COc1ncccc1-c1cnc2ccc(NC(=O)NCCCCc3ccccc3)nc2n1 [Compound 146, 1-[3-(2-Methoxy-pyridin-3-yl)-pyrido[2,3-b]pyrazin-6-yl]-3-(4-phenyl-butyl)-urea] here?
The melting point was 194 to 197 °C.

With COc1ccc(-c2cnc3ccc(NC(=O)NCCCCc4ccccc4)nc3n2)cc1S(=O)(=O)N1CCOCC1 [Compound 145, 1-{3-[4-Methoxy-3-(morpholine-4-sulfonyl)-phenyl]-pyrido[2,3-b]pyrazin-6-yl}-3-(4-phenyl-butyl)-urea] as the compound, how does the melting point read?
The melting point was 256 to 258 °C.

Which melting point does the source give for Cc1cc(O)ccc1-c1cnc2ccc(NC(=O)NCCCCc3ccccc3)nc2n1 [Compound 106, 1-[3-(4-Hydroxy-2-methyl-phenyl)-pyrido[2,3-b]pyrazin-6-yl]-3-(4-phenyl-butyl)-urea] here?
The melting point was 207 to 210 °C.

Which melting point does the source give for Nc1ccccc1-c1cnc2ccc(NC(=O)NCCCCc3ccccc3)nc2n1 [Compound 130, 1-[3-(2-Amino-phenyl)-pyrido[2,3-b]pyrazin-6-yl]-3-(4-phenyl-butyl)-urea] here?
Its melting point is 190 to 191 °C.

With O=C(NCCCCc1ccccc1)Nc1ccc2ncc(-c3ccc(F)cc3O)nc2n1 [Compound 144, 1-[3-(4-Fluoro-2-hydroxy-phenyl)-pyrido[2,3-b]pyrazin-6-yl]-3-(4-phenyl-butyl)-urea] as the compound, how does the melting point read?
The melting point was 248 to 249 °C.
